The values below come from patent publication US20260184707A1, “PHARMACEUTICAL COMPOUNDS FOR THE TREATMENT OF COMPLEMENT MEDIATED DISORDERS” (ALEXION PHARMACEUTICALS, INC., priority 2022, published 2026).

As usually defined, the IC50 is the point on the concentration scale where inhibition reaches its midpoint.

This assay addresses T1, Human complement C1s enzyme (Homo sapiens, UniProt P09871).
T1 construct: purified from human serum, Complement Technology, Inc; purchased Complement Technology, Inc; host or cells: human serum (plasma-derived native protein)
T1 sequence (P09871 438-688 limits assumed): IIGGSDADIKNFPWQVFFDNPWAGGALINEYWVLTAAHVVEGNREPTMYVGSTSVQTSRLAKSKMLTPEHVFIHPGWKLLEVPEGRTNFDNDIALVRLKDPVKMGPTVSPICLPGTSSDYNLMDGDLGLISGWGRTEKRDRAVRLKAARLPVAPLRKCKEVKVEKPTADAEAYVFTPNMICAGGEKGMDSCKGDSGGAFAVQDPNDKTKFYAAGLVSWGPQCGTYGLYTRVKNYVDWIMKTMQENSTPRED
T1 sequence (P09871 16-437 partner limits assumed): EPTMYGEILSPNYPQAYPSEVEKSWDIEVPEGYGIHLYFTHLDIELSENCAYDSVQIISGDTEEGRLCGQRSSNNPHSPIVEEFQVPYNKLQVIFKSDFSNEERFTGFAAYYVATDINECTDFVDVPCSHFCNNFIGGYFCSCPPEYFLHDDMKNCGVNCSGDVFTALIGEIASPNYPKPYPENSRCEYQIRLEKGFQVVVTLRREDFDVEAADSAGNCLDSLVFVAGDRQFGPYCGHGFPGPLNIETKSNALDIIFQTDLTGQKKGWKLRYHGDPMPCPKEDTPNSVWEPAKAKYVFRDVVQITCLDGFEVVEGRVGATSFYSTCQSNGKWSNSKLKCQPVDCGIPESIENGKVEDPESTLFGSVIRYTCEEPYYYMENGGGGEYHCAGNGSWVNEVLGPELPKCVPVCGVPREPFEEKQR
Put plainly: Human C1s enzyme assay. The assay is classed as biochemical. Conditions: human complement C1s enzyme 1.16 nM, substrate Z-L-Lys-SBzl, A405; read-out: IC50 (Stars). A digest of the protocol:
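Serum-purified human C1s (1.16 nM final) preincubated 5 min at room temperature with compound in 50 mM Tris, 1 M NaCl, pH 7.5. Z-L-Lys-SBzl and DTNB added at 100 μM each; A405 recorded every 30 s. IC50 from nonlinear regression of reaction rates versus compound concentration.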

As to `O=C(Cn1c(N2CC(F)C2)ncc(NCc2ccc3oc4ccccc4c3c2)c1=O)NCc1cc2cnccc2[nH]1` [Compound 270, 2-[5-(dibenzofuran-2-ylmethylamino)-2-(3-fluoroazetidin-1-yl)-6-oxo-pyrimidin-1-yl]-N-(1H-pyrrolo[3,2-c]pyridine-2-ylmethyl)acetamide], the IC50 was < 100 nM.
For `O=C(Cn1c(N2CCC(F)(F)C2)ncc(NCc2ccc3oc4ccccc4c3c2)c1=O)NCc1c[nH]c2ccncc12` [Compound 271, N-((1H-pyrrolo[3,2-c]pyridin-3-yl)methyl)-2-(5-((dibenzo [b,d]furan-2-ylmethyl)amino)-2-(3,3-difluoropyrrolidin-1-yl)-6-oxopyrimidin-1(6H)-yl)acet-amide] the value was < 100 nM.
As to `C[C@H](Nc1cnc(C2=CCCCC2)n(CC(=O)NCc2cc3cnccc3[nH]2)c1=O)c1ccc2oc3ccccc3c2c1` [Compound 272, (S)-N-((1H-pyrrolo[3,2-c]pyr-idin-2-yl)methyl)-2-(2-(cyclo-hex-1-en-1-yl)-5-((1-(dibenzo [b,d]furan-2-yl)ethyl)amino)-6-oxopyrimidin-1(6H)-yl)acet-amide], the IC50 is < 100 nM.
Under `C[C@H](Nc1cnc(-c2ccco2)n(CC(=O)NCc2cc3cnccc3[nH]2)c1=O)c1ccc2oc3ccccc3c2c1` [Compound 273, (S)-N-((1H-pyrrolo[3,2-c]pyr-idin-2-yl)methyl)-2-(5-((1-(dibenzo[b,d]furan-2-yl)ethyl)-amino)-2-(furan-2-yl)-6-oxo-pyrimidin-1(6H)-yl)acetamide] stands < 100 nM; under `C[C@H](Nc1cnc(-c2cccnc2)n(CC(=O)NCc2cc3cnccc3[nH]2)c1=O)c1ccc2oc3ccccc3c2c1` [Compound 274, (S)-N-((1H-pyrrolo[3,2-c]pyr-idin-2-yl)methyl)-2-(5-((1-(dibenzo[b,d]furan-2-yl)ethyl)-amino)-6-oxo-2-(pyridin-3-yl)-pyrimidin-1(6H)-yl)acetamide], < 100 nM; under `C[C@@H](Nc1cnc(-c2ccccc2)n(CC(=O)NCc2cc3cnccc3[nH]2)c1=O)c1ccc(-c2ccccc2)cc1` [Compound 275, (R)-N-((1H-pyrrolo[3,2-c]pyr-idin-2-yl)methyl)-2-(5-((1-([1,1′-biphenyl]-4-yl)ethyl)-amino)-6-oxo-2-phenylpyrimi-din-1(6H)-yl)acetamide], < 100 nM.
Under `C[C@H](Nc1cnc(-c2ccccc2)n(CC(=O)NCc2cc3cnccc3[nH]2)c1=O)c1ccc(-c2ccccc2)cc1` [Compound 276, (S)-N-((1H-pyrrolo[3,2-c]pyr-idin-2-yl)methyl)-2-(5-((1-([1,1′-biphenyl]-4-yl)ethyl)-amino)-6-oxo-2-phenylpyrimi-din-1(6H)-yl)acetamide] stands < 100 nM.
Consider `C[C@H](Nc1cnc(C2CCCC2)n(CC(=O)NCc2cc3cnccc3[nH]2)c1=O)c1ccc2oc3ccccc3c2c1` [Compound 277, (S)-N-((1H-pyrrolo[3,2-c]pyr-idin-2-yl)methyl)-2-(2-cyclo-pentyl-5-((1-(dibenzo[b,d]furan-2-yl)ethyl)amino)-6-oxo-pyrimidin-1(6H)-yl)acetamide], for which the IC50 is < 100 nM.
`O=C(Cn1c(-c2ccccc2)ncc(NC(=O)c2ccc(-c3ccccc3)s2)c1=O)NCc1ccc(Cl)s1` [Compound 278, N-(1-(2-(((5-chlorothiophen-2-yl)methyl)amino)-2-oxoethyl)-6-oxo-2-phenyl-1,6-dihydro-pyrimidin-5-yl)-5-phenylthio-phene-2-carboxamide]: the IC50 was > 1000 nM.
For `O=C(Cn1c(-c2ccc(N3CCOCC3)nc2)ncc(NCc2ccc3oc4ccccc4c3c2)c1=O)NCc1cc2cnccc2[nH]1` [Compound 279, N-((1H-pyrrolo[3,2-c]pyridin-2-yl)methyl)-2-(5-((dibenzo [b,d]furan-2-ylmethyl)amino)-2-(6-morpholinopyridin-3-yl)-6-oxopyrimidin-1(6H)-yl)-acetamide] the value was < 100 nM.
`O=C(Cn1c(-c2ccc(OC3CCOCC3)cc2)ncc(NCc2ccc3oc4ccccc4c3c2)c1=O)NCc1cc2cnccc2[nH]1` [Compound 280, N-((1H-pyrrolo[3,2-c]pyridin-2-yl)methyl)-2-(5-((dibenzo [b,d]furan-2-ylmethyl)amino)-6-oxo-2-(4-((tetrahydro-2H-pyran-4-yl)oxy)phenyl)pyrimi-din-1(6H)-yl)acetamide]: the IC50 is < 100 nM.
For `O=C(Cn1c(N2CC(F)(F)C2)ncc(NCc2ccc3oc4ccccc4c3c2)c1=O)NCc1cc2cnccc2[nH]1` [Compound 281, N-((1H-pyrrolo[3,2-c]pyridin-2-yl)methyl)-2-(5-((dibenzo [b,d]furan-2-ylmethyl)amino)-2-(3,3-difluoroazetidin-1-yl)-6-oxopyrimidin-1(6H)-yl)acet-amide] the value was < 100 nM; for `C[C@H](Nc1ncc(-c2ccccc2)n(CC(=O)NCc2cc3cnccc3[nH]2)c1=O)c1ccc2oc3ccccc3c2c1` [Compound 282, (S)—N-((1H-pyrrolo[3,2-c]pyridine-2-yl)methyl)-2-(3-((1-(dibenzo[b,d]furan-2-yl)ethyl)amino)-2-oxo-6-phenylpyrazin-1(2H)-yl)acetamide], < 100 nM; for `C[C@H](Nc1cnc(-c2cnn(C)c2)n(CC(=O)NCc2cc3cnccc3[nH]2)c1=O)c1ccc2oc3ccccc3c2c1` [Compound 283, (S)-N-((1H-pyrrolo[3,2-c]pyr-idin-2-yl)methyl)-2-(5-((1-(dibenzo[b,d]furan-2-yl)ethyl)-amino)-2-(1-methyl-1H-pyr-azol-4-yl)-6-oxopyrimidin-1(6H)-yl)acetamide], < 100 nM.
Under `C[C@H](Nc1cnc(N2CCCCC2)n(CC(=O)NCc2cc3cnccc3[nH]2)c1=O)c1ccc2oc3ccccc3c2c1` [Compound 284, (S)-N-((1H-pyrrolo[3,2-c]pyr-idin-2-yl)methyl)-2-(5-((1-(dibenzo[b,d]furan-2-yl)ethyl)-amino)-6-oxo-2-(piperidin-1-yl)pyrimidin-1(6H)-yl)acet-amide] stands < 100 nM.
For the compound `C[C@H](Nc1cnc(-c2ccccn2)n(CC(=O)NCc2cc3cnccc3[nH]2)c1=O)c1ccc2oc3ccccc3c2c1` [Compound 285, (S)—N-((1H-pyrrolo[3,2-c]pyridine-2-yl)methyl)-2-(5-((1-(dibenzo[b,d]furan-2-yl)ethyl)amino)-6-oxo-2-(pyridine-2-yl)pyrimidin-1(6H)-yl)acetamide], the IC50 was < 100 nM.
Under `C[C@H](Nc1cnc(-c2cccs2)n(CC(=O)NCc2cc3cnccc3[nH]2)c1=O)c1ccc2oc3ccccc3c2c1` [Compound 286, (S)-N-((1H-pyrrolo[3,2-c]pyr-idin-2-yl)methyl)-2-(5-((1-(dibenzo[b,d]furan-2-yl)ethyl)-amino)-6-oxo-2-(thiophen-2-yl)pyrimidin-1(6H)-yl)acet-amide] stands < 100 nM.
Under `Cn1cc(-c2ncc(NCc3ccc4oc5ccccc5c4c3)c(=O)n2CC(=O)NCc2cc3cnccc3[nH]2)cn1` [Compound 287, N-((1H-pyrrolo[3,2-c]pyridin-2-yl)methyl)-2-(5-((dibenzo [b,d]furan-2-ylmethyl)amino)-2-(1-methyl-1H-pyrazol-4-yl)-6-oxopyrimidin-1(6H)-yl)-acetamide] stands < 100 nM; under `C[C@H](Nc1cnc(-c2ccc(O[C@@H]3CO[C@H]4[C@@H]3OC[C@H]4O)cc2)n(CC(=O)NCc2cc3cnccc3[nH]2)c1=O)c1ccc2oc3ccccc3c2c1` [Compound 288, N-((1H-pyrrolo[3,2-c]pyridin-2-yl)methyl)-2-(5-(((S)-1-(dibenzo[b,d]furan-2-yl)ethyl)-amino)-2-(4-(((3R,3aR,6R, 6aR)-6-hydroxyhexahydrofuro [3,2-b]furan-3-yl)oxy)phenyl)-6-oxopyrimidin-1(6H)-yl)acet-amide], < 100 nM; under `O=C(Cn1c(-c2ccncc2)ncc(NCc2ccc3oc4ccccc4c3c2)c1=O)NCc1cc2cnccc2[nH]1` [Compound 289, N-((1H-pyrrolo[3,2-c]pyridin-2-yl)methyl)-2-(5-((dibenzo [b,d]furan-2-ylmethyl)amino)-6-oxo-2-(pyridin-4-yl)pyrimi-din-1(6H)-yl)acetamide], < 100 nM.
In the case of `C[C@@H](Nc1cnc(-c2ccc(=O)n(C)c2)n(CC(=O)NCc2cc3cnccc3[nH]2)c1=O)c1ccc2oc3ccccc3c2c1` [Compound 290, (R)-N-((1H-pyrrolo[3,2-c]pyr-idin-2-yl)methyl)-2-(5-((1-(dibenzo[b,d]furan-2-yl)ethyl)-amino)-2-(1-methyl-6-oxo-1,6-dihydropyridin-3-yl)-6-oxopyr-imidin-1(6H)-yl)acetamide], the IC50 lay in the range of 100 to 1000 nM.
For `C[C@@H](Nc1cnc(C2=CCOCC2)n(CC(=O)NCc2cc3cnccc3[nH]2)c1=O)c1ccc2oc3ccccc3c2c1` [Compound 291, (R)-N-((1H-pyrrolo[3,2-c]pyr-idin-2-yl)methyl)-2-(5-((1-(dibenzo[b,d]furan-2-yl)ethyl)-amino)-2-(3,6-dihydro-2H-pyran-4-yl)-6-oxopyrimidin-1(6H)-yl)acetamide] the value was < 100 nM.
